# Test results as given in patent publication US20030032003A1, “IN VIVO SELECTION” (priority 2000, published 2003).
# Experiments:
# [1] = system: T cells from Lesch Nyhan syndrome patients and Hprt deficient brothers; details: cited from earlier work
# [2] = system: Hprt −/− (Hprt deficient) mice; assay: Acute toxicity of 6TG, approximate lethal dose; details: for body weight, percentage of the body weight before the experiment / survival: Hprt −/−, 14 days
# [3] = system: Hprt −/− mice; assay: Histopathological analysis of mouse tissues after 6TG
# [4] = system: Hprt −/− mice; assay: Biochemical analysis of mouse serum after 6TG; format: in vivo; details: serum 14 days after treatment
# Method: Serum biochemistry parameters analyzed included blood urea nitrogen (BUN), aspartate amino transferase (AST), alanine amino transferase (ALT), creatine kinase (CK), and alkaline phosphatase (AP). The analyses were performed at Tufts University Veterinary Medical Diagnosis Laboratory with the chemical analyser Hitachi 747. Blood was collected from the posterior vena cava of Hprt deficient mice that were either treated with water, 25, 500, or 720 mg/kg 6TG i.p. and wildtype mice administered 25 mg/kg 6TG.
# […] Serum samples taken 14 days after treatment were evaluated for the levels of blood urea nitrogen (BUN), aspartate amino transferase (AST), alanine amino transferase (ALT), creatine kinase (CK) and alkaline phosphatase (AP). Elevated BUN is associated with dehydratation and/or renal insufficiency. Elevated activities of ALT and AST are characteristic for liver damage particularly necrosis, cirrhosis and/or hepatitis and also muscle trauma or myocardial infarction or myositis. Elevated AP is associated mostly with increased bone marrow metabolism and also with hapatocellular damage during hepatitis. CK is predominantly located in muscles and therefore its increased activities are consequence of muscular trauma, myocardial infarction or myopathic disorders.
# [5] = system: Hprt +/+ bone marrow of recipient mice; assay: Bone marrow replacement, Southern blot analysis of Y (donor) DNA; format: in vivo, mouse
# Text: The replacement of Hprt positive bone marrow with Hprt deficient bone marrow was examined by Southern blot analysis. Since recipients animals were females and donor bone marrow was of male origin, we have determined the fraction of cells containing chromosome (Y) in hematopoetic organs (bone marrow, spleen, thymus) and peripheral tissue (tail) in recipient animals. The Y chromosome was detected in 6TG treated and control animals.
# Next Applicants tested whether “in vivo selection” without whole body irradiation can lead to complete bone marrow replacement. The wild type recipient mice were pretreated with 6TG (10 mg/kg twice in 48 hrs interval) or with sterile PBS and the Hprt deficient bone marrow was transplanted. The animals in the experimental group were 6TG pretreated followed with the 6TG in vivo selection protocol (described herein above). The control animals (6TG or PBS pretreated) were treated with sterile PBS buffer instead of 6TG. The degree of bone marrow replacement was evaluated by Southern blot analysis in hematopoetic tissues (bone marrow, spleen, thymus) and blood at the end of the 7th week post transplantation.
# [6] = Hprt −/−, 6TG lethal 1148-2561 mg/kg, 3 mice
# [7] = Hprt −/−, 6TG sublethal 25-720 mg/kg, 11 mice
smiles,measurement,setting,value
"Nc1nc(S)c2[nH]cnc2n1 [6TG, 2-amino-6-merkaptopurine]",6TG resistance higher than cells from normal individuals,[1]; T cells from Lesch Nyhan syndrome patients,300 fold
same,6TG resistance greater than normal individuals,[1]; T cells of Hprt deficient brothers without signs of the disease,10 fold
same,approximate lethal dose,"[2]; Hprt −/− animals, single i.p.",1148 mg/kg
same,increase of approximate lethal dose over the wildtype strain,[2]; Hprt −/− vs wildtype,23 fold
same,"body weight, percentage of the body weight before the experiment",[2]; 25 mg/kg single i.p.,101%
same,survival,[2]; 25 mg/kg single i.p.,"surv (surv, animals survived the 14 days period)"
same,"body weight, percentage of the body weight before the experiment",[2]; 50 mg/kg single i.p.,102%
same,survival,[2]; 50 mg/kg single i.p.,"surv (surv, animals survived the 14 days period)"
same,"body weight, percentage of the body weight before the experiment",[2]; 100 mg/kg single i.p.,103%
same,survival,[2]; 100 mg/kg single i.p.,"surv (surv, animals survived the 14 days period)"
same,"body weight, percentage of the body weight before the experiment",[2]; 150 mg/kg single i.p.,101%
same,survival,[2]; 150 mg/kg single i.p.,"surv (surv, animals survived the 14 days period)"
same,"body weight, percentage of the body weight before the experiment",[2]; 225 mg/kg single i.p.,100%
same,survival,[2]; 225 mg/kg single i.p.,"surv (surv, animals survived the 14 days period)"
same,"body weight, percentage of the body weight before the experiment",[2]; 338 mg/kg single i.p.,101%
same,survival,[2]; 338 mg/kg single i.p.,"surv (surv, animals survived the 14 days period)"
same,"body weight, percentage of the body weight before the experiment",[2]; 508 mg/kg single i.p.,99%
same,survival,[2]; 508 mg/kg single i.p.,"surv (surv, animals survived the 14 days period)"
same,"body weight, percentage of the body weight before the experiment",[2]; 720 mg/kg single i.p.,101%
same,survival,[2]; 720 mg/kg single i.p.,"surv (surv, animals survived the 14 days period)"
same,"body weight, percentage of the body weight before the experiment",[2]; 1148 mg/kg single i.p.,69%
same,survival,[2]; 1148 mg/kg single i.p.,8.5 days
same,"body weight, percentage of the body weight before the experiment",[2]; 1714 mg/kg single i.p.,93%
same,survival,[2]; 1714 mg/kg single i.p.,4 days
same,"body weight, percentage of the body weight before the experiment",[2]; 2571 mg/kg single i.p.,95%
same,survival,[2]; 2571 mg/kg single i.p.,4 days
same,hyperplasia dose below doses causing toxicity,[3]; Hprt deficient animals,40 fold
same,dose at which liver necrosis appears,[3]; Hprt deficient mice,≥ 507 mg/kg
same,"Kidneys Glomerulopathy, severity grade","[3]; Hprt −/−, 25 mg/kg i.p.",1
same,"Kidneys Intersticial inflamation, severity grade","[3]; Hprt −/−, 25 mg/kg i.p.",2
same,"Liver Centrilobular hypertrophy, severity grade","[3]; Hprt −/−, 25 mg/kg i.p.",3
same,"Bone marrow Hypercellular, severity grade","[3]; Hprt −/−, 50 mg/kg i.p.",1.0 ± 1.0
same,"Liver Centrilobular hypertrophy, severity grade","[3]; Hprt −/−, 50 mg/kg i.p.",1.5 ± 0.5
same,"Liver Fatty change, severity grade","[3]; Hprt −/−, 50 mg/kg i.p.",1.0 ± 1.0
same,"Bone marrow Hypercellular, severity grade","[3]; Hprt −/−, 100 mg/kg i.p.",1
same,"Liver Centrilobular hypertrophy, severity grade","[3]; Hprt −/−, 100 mg/kg i.p.",2
same,"Liver Extramedullary hematopoesis, severity grade","[3]; Hprt −/−, 100 mg/kg i.p.",1
same,"Liver Fatty change, severity grade","[3]; Hprt −/−, 100 mg/kg i.p.",1
same,"Bone marrow Hypercellular, severity grade","[3]; Hprt −/−, 150 mg/kg i.p.",2
same,"Kidneys Glomerulopathy, severity grade","[3]; Hprt −/−, 150 mg/kg i.p.",3
same,"Kidneys Intersticial inflamation, severity grade","[3]; Hprt −/−, 150 mg/kg i.p.",2
same,"Kidneys Tubule basophilia, severity grade","[3]; Hprt −/−, 150 mg/kg i.p.",1
same,"Kidneys Tubule dilatation, severity grade","[3]; Hprt −/−, 150 mg/kg i.p.",2
same,"Liver Centrilobular hypertrophy, severity grade","[3]; Hprt −/−, 150 mg/kg i.p.",2
same,"Liver Extramedullary hematopoesis, severity grade","[3]; Hprt −/−, 150 mg/kg i.p.",1
same,"Liver Fatty change, severity grade","[3]; Hprt −/−, 150 mg/kg i.p.",3
same,"Bone marrow Hypercellular, severity grade","[3]; Hprt −/−, 225 mg/kg i.p.",2
same,"Kidneys Glomerulopathy, severity grade","[3]; Hprt −/−, 225 mg/kg i.p.",2
same,"Kidneys Intersticial inflamation, severity grade","[3]; Hprt −/−, 225 mg/kg i.p.",2
same,"Kidneys Tubule basophilia, severity grade","[3]; Hprt −/−, 225 mg/kg i.p.",2
same,"Kidneys Tubule dilatation, severity grade","[3]; Hprt −/−, 225 mg/kg i.p.",2
same,"Liver Extramedullary hematopoesis, severity grade","[3]; Hprt −/−, 225 mg/kg i.p.",1
same,"Liver Fatty change, severity grade","[3]; Hprt −/−, 225 mg/kg i.p.",2
same,"Bone marrow Hypercellular, severity grade","[3]; Hprt −/−, 338 mg/kg i.p.",1
same,"Kidneys Glomerulopathy, severity grade","[3]; Hprt −/−, 338 mg/kg i.p.",1
same,"Kidneys Intersticial inflamation, severity grade","[3]; Hprt −/−, 338 mg/kg i.p.",2
same,"Kidneys Tubule basophilia, severity grade","[3]; Hprt −/−, 338 mg/kg i.p.",1
same,"Kidneys Tubule dilatation, severity grade","[3]; Hprt −/−, 338 mg/kg i.p.",1
same,"Liver Centrilobular hypertrophy, severity grade","[3]; Hprt −/−, 338 mg/kg i.p.",1
same,"Liver Extramedullary hematopoesis, severity grade","[3]; Hprt −/−, 338 mg/kg i.p.",1
same,"Liver Fatty change, severity grade","[3]; Hprt −/−, 338 mg/kg i.p.",2
same,"Spleen Lymphoid depletion, severity grade","[3]; Hprt −/−, 338 mg/kg i.p.",1
same,"Bone marrow Hypercellular, severity grade","[3]; Hprt −/−, 507 mg/kg i.p.",1.5 ± 0.5
same,"Kidneys Tubule basophilia, severity grade","[3]; Hprt −/−, 507 mg/kg i.p.",1.5 ± 0.5
same,"Kidneys Tubule dilatation, severity grade","[3]; Hprt −/−, 507 mg/kg i.p.",0.5 ± 0.5
same,"Liver Atrophy necrosis, severity grade","[3]; Hprt −/−, 507 mg/kg i.p.",1.0 ± 0.0
same,"Liver Centrilobular hypertrophy, severity grade","[3]; Hprt −/−, 507 mg/kg i.p.",2.0 ± 0.0
same,"Liver Extramedullary hematopoesis, severity grade","[3]; Hprt −/−, 507 mg/kg i.p.",1.5 ± 0.5
same,"Liver Fatty change, severity grade","[3]; Hprt −/−, 507 mg/kg i.p.",2.5 ± 0.5
same,"Bone marrow Hypercellular, severity grade","[3]; Hprt −/−, 720 mg/kg i.p.",1.5 ± 0.5
same,"Kidneys Glomerulopathy, severity grade","[3]; Hprt −/−, 720 mg/kg i.p.",0.5 ± 0.5
same,"Kidneys Intersticial inflamation, severity grade","[3]; Hprt −/−, 720 mg/kg i.p.",1.5 ± 0.5
same,"Kidneys Tubule basophilia, severity grade","[3]; Hprt −/−, 720 mg/kg i.p.",1.5 ± 0.5
same,"Kidneys Tubule dilatation, severity grade","[3]; Hprt −/−, 720 mg/kg i.p.",1.5 ± 0.5
same,"Liver Atrophy necrosis, severity grade","[3]; Hprt −/−, 720 mg/kg i.p.",0.5 ± 0.5
same,"Liver Centrilobular hypertrophy, severity grade","[3]; Hprt −/−, 720 mg/kg i.p.",1.0 ± 0.0
same,"Liver Extramedullary hematopoesis, severity grade","[3]; Hprt −/−, 720 mg/kg i.p.",1.0 ± 0.0
same,"Liver Fatty change, severity grade","[3]; Hprt −/−, 720 mg/kg i.p.",1.5 ± 0.5
same,"Spleen Lymphoid depletion, severity grade","[3]; Hprt −/−, 720 mg/kg i.p.",0.5 ± 0.5
same,"Bone marrow Depletion, average of lesion severity grade",[3]; [6],2.3 ± 0.6
same,"Bone marrow Necrosis, average of lesion severity grade",[3]; [6],3.0 ± 0.0
same,"Gastric epithelium Atrophy, average of lesion severity grade",[3]; [6],0.6 ± 0.6
same,"Intestinal epithelium Atrophy, average of lesion severity grade",[3]; [6],0.6 ± 0.6
same,"Kidneys Tubule dilatation, average of lesion severity grade",[3]; [6],0.3 ± 0.6
same,"Liver Atrophy necrosis, average of lesion severity grade",[3]; [6],1.3 ± 0.6
same,"Liver Centrilobular hypertrophy, average of lesion severity grade",[3]; [6],1.0 ± 1.7
same,"Liver Extramedullary hematopoesis, average of lesion severity grade",[3]; [6],0.3 ± 0.6
same,"Liver Fatty change, average of lesion severity grade",[3]; [6],3.3 ± 0.6
same,"Spleen Lymphoid depletion, average of lesion severity grade",[3]; [6],3.7 ± 0.6
same,"Spleen Necrosis, average of lesion severity grade",[3]; [6],2.0 ± 1.7
same,"Bone marrow Hypercellular, average of lesion severity grade",[3]; [7],1.2 ± 0.6
same,"Kidneys Glomerulopathy, average of lesion severity grade",[3]; [7],1.0 ± 1.0
same,"Kidneys Intersticial inflamation, average of lesion severity grade",[3]; [7],1.5 ± 1.0
same,"Kidneys Tubule basophilia, average of lesion severity grade",[3]; [7],0.9 ± 0.8
same,"Kidneys Tubule dilatation, average of lesion severity grade",[3]; [7],0.9 ± 0.9
same,"Liver Atrophy necrosis, average of lesion severity grade",[3]; [7],0.2 ± 0.4
same,"Liver Centrilobular hypertrophy, average of lesion severity grade",[3]; [7],1.2 ± 0.8
same,"Liver Extramedullary hematopoesis, average of lesion severity grade",[3]; [7],0.8 ± 0.5
same,"Liver Fatty change, average of lesion severity grade",[3]; [7],1.6 ± 0.9
same,"Spleen Lymphoid depletion, average of lesion severity grade",[3]; [7],02 ± 0.4
same,ALT,[4]; 25 mg/kg single i.p.,28.7 ± 14.9 u/l
same,AP,[4]; 25 mg/kg single i.p.,78.7 ± 22.5 u/l
same,AST,[4]; 25 mg/kg single i.p.,53.3 ± 17.5 u/l
same,BUN,[4]; 25 mg/kg single i.p.,18.5 ± 0.6 mg/dL
same,CK,[4]; 25 mg/kg single i.p.,67.7 ± 41.2 u/l
same,ALT,[4]; 500 mg/kg single i.p.,14.3 ± 3.5 u/l
same,AP,[4]; 500 mg/kg single i.p.,71.0 ± 38.0 u/l
same,AST,[4]; 500 mg/kg single i.p.,50. ± 11.8 u/l
same,BUN,[4]; 500 mg/kg single i.p.,18.0 ± 1.0 mg/dL
same,CK,[4]; 500 mg/kg single i.p.,52.0 ± 23.3 u/l
same,ALT,[4]; 720 mg/kg single i.p.,13.7 ± 1.5 u/l
same,AP,[4]; 720 mg/kg single i.p.,78.7 ± 20.5 u/l
same,AST,[4]; 720 mg/kg single i.p.,43.3 ± 14.0 u/l
same,BUN,[4]; 720 mg/kg single i.p.,20.0 ± 2.7 mg/dL
same,CK,[4]; 720 mg/kg single i.p.,37.3 ± 11.6 u/l
same,bone marrow replacement,"[5]; 6TG in vivo selection protocol, whether or not irradiation was used, end of 7th week post transplantation",100%
same,engraftment of Hprt deficient bone marrow cells (containing Y chomosome),"[5]; irradiated recipients, 6TG selection in comparison to control animals",significantly increased engraftment
